Laboratory results reported in patent publication US5905089A, “Use of sesquiterpene lactones for treatment of severe inflammatory disorders” (Board of Supervisors of Louisiana State University and …, priority 1998, dated 1999).

Key:
TNFα = assay: LPS-induced TNFα production in alveolar macrophages (bioassay using L929 cells); format: cell-based, Rat (Sprague-Dawley); settings: LPS 10 μg/ml, 16h, FIG. 2
Procedure: (§1) Rat (Sprague-Dawley) alveolar macrophages were collected by broncho-alveolar lavage as described by Lee et al., J. Biol. Chem., vol. 267, pp. 25934-25938 (1992). The murine macrophage cell line RAW 264.7 (ATCC no. TIB-71) was cultured in Dubecco's modified Eagle's medium (DMEM) containing 10% heat-inactivated fetal bovine serum (FBS, Intergen). For the cyclooxygenase activity assay, cells were seeded in 24 well plates, and after near-confluency, cells were treated with aspirin (250 μM) for 2.5h to inactivate endogenous cyclooxygenase. […] COX activity was determined by measuring prostaglandin E2 concentrations in cells incubated with arachidonic acid (30 μM) for 10 minutes as described in Lee et al. (1992).
Recovered COX activity in cells pretreated with aspirin reflected de novo synthesized COX-2. Alveolar macrophages pretreated with aspirin were incubated with LPS (10 μg/ml) and various concentrations of parthenolide for 16h. The activity of de novo synthesized COX-2 was determined by measuring the levels of PGE2 produced from exogenous arachidonic acid. Activity of TNFα was determined by bioassay using L929 cells as described by Aggarwal et al., J. Biol. Chem., vol. 260, pp. 2345-2354 (1985). […] Values in FIG. 2 are the means of triplicate samples for TNFα and duplicate samples for PGE2.

COX-2 [1] = assay: COX-2 protein expression in LPS-stimulated alveolar macrophages (immunoblot); format: cell-based, Rat (Sprague-Dawley); settings: 16h, FIG. 3A
Procedure: as §1
(§2) The protein levels of COX-2 and GAPDH were assessed by Western blot analysis using polyclonal antibodies as described in Lee et al. (1992). Polyclonal antibodies for IL-1α and JNK-1 were purchased from Genzyme and Santa Cruz Biotech, respectively.
(§3) In FIG. 3A, alveolar macrophages were incubated with LPS and various concentrations of parthenolide for 16h. Solubilized proteins were analyzed by COX-2, IL-1α or GAPDH immunoblotting. FIG. 3A is a representative immunoblot of more than five different analyses. Data are shown for various concentrations of both parthenolide (PTN) and herbimycin A (HER). […]

IL-1α [2] = assay: IL-1α protein expression in LPS-stimulated alveolar macrophages (Western blot); format: cell-based, Rat (Sprague-Dawley); settings: 16h, FIG. 3A
Procedure: as §1, §2, §3

[3] = test system: tyrosine phosphorylation of various proteins; assay: LPS-stimulated tyrosine phosphorylation of various proteins in RAW 264.7 cells (antiphosphotyrosine immunoblot); format: cell-based, murine; settings: 3h pretreatment, LPS 1 μg/ml 30 min; FIG. 5A
Procedure: as §1
(§4) This detection technique was carried out essentially as described in Chanmugan et al. (1995) using 4G10 monoclonal antiphosphotyrosine antibody (UBI) and the ECL detection system (Amersham).
(§5) Parthenolide suppressed LPS-stimulated tyrosine phosphorylation of various proteins in RAW 264.7 cells as assessed by antiphosphotyrosine immunoblot, depicted in FIG. 5A. This inhibition was correlated with the suppressed expression of COX-2 and IL-1α. […] Therefore, the extent of tyrosine phosphorylation of JNK-1 was assessed by the electrophoretic mobility shift of phosphorylated JNK-1 as shown in FIG. 5B. […]

ERK-1 [4] = assay: Tyrosine phosphorylation of ERK-1 in RAW 264.7 cells (antiphosphotyrosine immunoblot); format: cell-based, murine; settings: 3h pretreatment, LPS 1 μg/ml 30 min; FIG. 5A
Procedure: as §1, §4, §5

P38 = assay: Tyrosine phosphorylation of P38 in RAW 264.7 cells (antiphosphotyrosine immunoblot); format: cell-based, murine; settings: 3h pretreatment, LPS 1 μg/ml 30 min; FIG. 5A
Procedure: as §1, §4, §5

[5] = test system: c-Jun N-terminal kinase-1 (JNK-1); assay: Tyrosine phosphorylation of JNK-1 in RAW 264.7 cells (electrophoretic mobility shift immunoblot); format: cell-based, murine; settings: 3h pretreatment, LPS 1 μg/ml 30 min; FIG. 5B
Procedure: as §1, §2, §5

ERK-1 [6] = assay: Kinase activity of ERK-1 in RAW 264.7 cells (in-gel kinase assay, MBP substrate); format: cell-based, murine; settings: 3h pretreatment, LPS 1 μg/ml 30 min; FIG. 5
Procedure: as §1
(§6) This assay was performed according to the method described by Kameshita et al., Anal. Biochem., vol. 183, pp. 139-143 (1989) using myelin basic protein (MBP) as a substrate.
as §5

ERK-2 = assay: Kinase activity of ERK-2 in RAW 264.7 cells (in-gel kinase assay, MBP substrate); format: cell-based, murine; settings: 3h pretreatment, LPS 1 μg/ml 30 min; FIG. 5
Procedure: as §1, §6, §5

COX-2 [7] = assay: COX-2 expression in LPS-stimulated RAW 264.7 cells (Western blot); format: cell-based, murine; settings: LPS 1 μg/ml; FIG. 5D
Procedure: as §1, §2
(§7) Parthenolide suppressed LPS-stimulated tyrosine phosphorylation of various proteins in RAW 264.7 cells as assessed by antiphosphotyrosine immunoblot, depicted in FIG. 5A. This inhibition was correlated with the suppressed expression of COX-2 and IL-1α. RAW 264.7 cells were pretreated with parthenolide in various concentrations or with herbimycin A (0.5 μg/ml) for 3h, and then stimulated with LPS (1 μg/ml) in the presence of the inhibitors for 30 min. […] Therefore, the extent of tyrosine phosphorylation of JNK-1 was assessed by the electrophoretic mobility shift of phosphorylated JNK-1 as shown in FIG. 5B. Parthenolide inhibited tyrosine phosphorylation of JNK-1. Another protein tyrosine kinase inhibitor, herbimycin A ([…]), inhibited tyrosine phosphorylation of the MAPK subfamily.
(§8) The mechanism by which parthenolide inhibits protein tyrosine phosphorylation is not currently known. It has been speculated that the tyrosine kinase inhibitor herbimycin A inactivates p60^v-src kinase by irreversibly binding to the sulphydryl (SH) groups of p60^v-src kinase. Y. Uehara et al., Biochem. Biophys. Res. Commun., vol. 163, pp. 803-809 (1989). The inactivation by herbimycin may occur through conjugation between highly polarized double bonds in the benzoquinone moiety of herbimycin A and the SH group of sulphydryl compounds. Without wishing to be bound by this theory, the α-methylenebutyrolactone in parthenolide may interact with biological nucleophiles such as sulphydryl groups. Indeed, pretreating cells with sulphydryl compounds abrogated the inhibitory effect of parthenolide on LPS-induced activation of MAPKs as shown in FIG. 6A. […]

IL-1α [8] = assay: IL-1α expression in LPS-stimulated RAW 264.7 cells (Western blot); format: cell-based, murine; settings: LPS 1 μg/ml; FIG. 5D
Procedure: as §1, §2, §7, §8

[9] = test system: Nuclear Factor-kB (NF-kB); assay: NF-kB activated by LPS in RAW 264.7 cells (degradation of IKBα); format: cell-based, murine
Text: Parthenolide inhibits Nuclear Factor--kB (NF-kB) transcription factor that has been activated by LPS in the murine macrophage cell line (RAW 264.7) as assessed by the degradation of the protein, IKBα. Activated NF-kB is known to induce the expression of many early response genes including inducible nitric oxide synthetase, cyclooxygenase, and chemokines that are implicated in acute inflammatory responses.

C=C1C(=O)O[C@H]2[C@H]1CC/C(C)=C/CC[C@@]1(C)O[C@@H]21 [Compound 1, Parthenolide]
IC50, suppression of LPS-induced TNFα production (TNFα): 0.1 µg/mL | expression of COX-2 protein (COX-2 [1]): dose-dependent inhibition | expression of IL-1α protein (IL-1α [2]; listed as Parthenolide): inhibited | expression of IL-1α protein (IL-1α [2]; listed as parthenolide): dose-dependent inhibition | LPS-stimulated tyrosine phosphorylation of various proteins [3]: suppressed | tyrosine phosphorylation of ERK-1 (ERK-1 [4]): inhibited by parthenolide in a dose-dependent manner | tyrosine phosphorylation of P38 (P38): inhibited by parthenolide in a dose-dependent manner | tyrosine phosphorylation of JNK-1 [5]: inhibited | kinase activity of ERK-1 (ERK-1 [6]): dose-dependent inhibition | kinase activity of ERK-2 (ERK-2): dose-dependent inhibition | expression of COX-2 in RAW 264.7 cells (COX-2 [7]): suppressed | expression of IL-1α in RAW 264.7 cells (IL-1α [8]): suppressed | inhibition of NF-kB transcription factor activated by LPS [9]: inhibits
